Source: article PMC3510438, “The transmembrane tyrosines Y56, Y91 and Y167 play important roles in determining the affinity and transport rate of the rabbit proton-coupled peptide transporter PepT1” (The International Journal of Biochemistry & Cell Biology, 2009)
Where a chain is given by its changes, count along the chain named. Where a SMILES comes first, the peptide text is derived from it.

Experiments:
Y91F-rPepT1 = target: T1, Y91F-rPepT1 (Oryctolagus cuniculus, UniProt P36836, Y91F); assay: Competition of [3H]-D-Phe-L-Gln uptake into Xenopus oocytes, Ki; format: cell-based, rabbit; settings: against 0.4 μM [3H]-D-Phe-L-Gln uptake
T1 construct: expressed in transfected cells; host or cells: Xenopus laevis oocytes injected with cRNA
T1 sequence (P36836 1-707 Y91F): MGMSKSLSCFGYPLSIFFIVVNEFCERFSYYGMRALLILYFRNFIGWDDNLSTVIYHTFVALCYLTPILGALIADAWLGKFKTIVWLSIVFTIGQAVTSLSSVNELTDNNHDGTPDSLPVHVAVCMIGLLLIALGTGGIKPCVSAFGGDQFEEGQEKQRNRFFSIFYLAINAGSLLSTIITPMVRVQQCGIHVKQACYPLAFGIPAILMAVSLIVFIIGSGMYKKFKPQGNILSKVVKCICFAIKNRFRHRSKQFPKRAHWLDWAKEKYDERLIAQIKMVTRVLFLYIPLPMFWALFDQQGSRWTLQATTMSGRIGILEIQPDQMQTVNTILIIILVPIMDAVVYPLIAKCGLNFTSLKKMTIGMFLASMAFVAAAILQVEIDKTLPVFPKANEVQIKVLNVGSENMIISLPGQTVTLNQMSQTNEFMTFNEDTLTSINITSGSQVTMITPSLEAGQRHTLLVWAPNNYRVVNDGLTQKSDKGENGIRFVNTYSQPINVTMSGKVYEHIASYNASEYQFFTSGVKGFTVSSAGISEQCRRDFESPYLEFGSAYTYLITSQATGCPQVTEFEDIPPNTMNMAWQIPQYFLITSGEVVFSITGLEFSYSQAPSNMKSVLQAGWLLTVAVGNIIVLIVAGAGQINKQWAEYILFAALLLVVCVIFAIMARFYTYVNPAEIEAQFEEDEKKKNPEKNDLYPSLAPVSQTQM
Method: (§1) rPepT1 constructs were linearised with XbaI (New England Biolabs, UK) and cRNA generated by in vitro transcription (T7 mMessage mMachine, Ambion, Cambridgeshire, UK). Xenopus laevis oocytes were obtained under MS222 anaesthesia (0.2%, w/v) in accordance with the UK Animals (Scientific Procedures) Act, 1986, and maintained at 18 °C in modified Barth's medium (88 mM NaCl, 1 mM KCl, 0.82 mM MgSO4, 2.4 mM NaHCO3, 0.42 mM CaCl2, 10 mM Hepes, 5 mM sodium pyruvate, 50 μg ml^−1 gentamicin (Fluka, Poole, UK), adjusted to pH 7.6 with 1 M NaOH). Transport measurements were performed at least 72 h after micro-injection of oocytes with 27nl cRNA (1 μg/μl), with medium changed daily.
(§2) Uptake of [^3H]-D-Phe-L-Gln (17.4 Ci/mmole, custom synthesised, Cambridge Research Biochemicals, Stockton-on-Tees, UK) was performed as previously described ([Meredith, 2004]). Briefly, 5 oocytes were incubated in 100 μl of uptake medium (95 mM NaCl, 2 mM KCl, 1 mM CaCl2, 0.42 mM MgCl2, 10 mM Tris/Hepes pH 7.4 or Tris/Mes pH 5.5) with tracer (0.4 μM) [^3H]-D-Phe-L-Gln. After incubation, the oocytes were washed sequentially five times in 1 ml of ice-cold 120 mM NaCl solution, lysed individually with 100 μl 2% (w/v) SDS and liquid scintillation counted. As a control non-injected oocytes were also incubated in uptake medium with D-Phe-L-Gln as above.
The affinity of wild-type and mutant rPepT1 transporters were assessed by competition studies with 0.4 μM [^3H]-D-Phe-L-Gln and Gly-L-Gln present in the uptake medium in concentrations from 0 to 2 mM using the protocol above, and the Ki calculated using the method of [Deves and Boyd (1989)].

T58Y-rPepT1 = target: T2, T58Y-rPepT1 (Oryctolagus cuniculus, UniProt P36836, T58Y); assay: Uptake of tracer [3H]-D-Phe-L-Gln into Xenopus oocytes; format: cell-based, rabbit; settings: both pHout 5.5 and 7.4
T2 construct: expressed in transfected cells; host or cells: Xenopus laevis oocytes injected with cRNA
T2 sequence (P36836 1-707 T58Y): T1 sequence (P36836 1-707 Y91F) with T58Y, F91Y
Method: as §1, §2

Row | Molecule | Ki (Y91F-rPepT1; pHout 5.5) [µM] | Ki (Y91F-rPepT1; pHout 7.4) [µM] | reduction of transport function compared to the wild-type (T58Y-rPepT1) [%]
1 | NCC(=O)N[C@@H](CCC(N)=O)C(=O)O [Gly-L-Gln] (H-Gly-Gln-OH) | 1400 ± 310 | 460 ± 90 | 
2 | [^3H]-D-Phe-L-Gln |  |  | > 70
